Holding throughout (assay type): functional
Experiment [1] concerns Mycobacterium tuberculosis. The experiment in a line: Antimycobacterial activity against Mycobacterium tuberculosis H37 Rv ATCC 27294.
Experiment [2] relates to Mycobacterium tuberculosis. The experiment in a line: Antimycobacterial activity against rifampicin and rifabutin sensitive Mycobacterium tuberculosis.
Another experiment deals with Mycobacterium avium. The experiment in a line: Antimycobacterial activity against Mycobacterium avium-intracellulare complex measured as susceptibility at 1 ug/mL.
Another experiment deals with Mycobacterium kansasii. Put plainly: Antimycobacterial activity against Mycobacterium kansasii measured as susceptibility at 1 ug/mL.

≈ marks a conversion by molar mass, not a printed value.

As a reminder, the MIC is the lowest concentration that inhibits growth of the organism. A higher MIC goes with weaker potency. Consider `C=CCN1[C@@H](c2ccccc2)C[C@@]2(C[C@H]1c1ccccc1)N=C1C(=C3NC(=O)/C(C)=C\C=C\[C@H](C)[C@H](O)[C@@H](C)[C@H](O)[C@H](C)[C@H](OC(C)=O)[C@H](C)[C@@H](OC)/C=C/O[C@@]4(C)Oc5c(C)c(O)c(c1c5C4=O)C3=O)N2`, for which the MIC in experiment [1] and in experiment [2] was 0.02 mg/L (≈ 0.0203 µM) throughout. Also, the Activity entry in the experiment on Mycobacterium avium is given as “<=40%”; with Mycobacterium kansasii, 100%.

With `C=CCCN1[C@@H](c2ccccc2)C[C@@]2(C[C@H]1c1ccccc1)N=C1C(=C3NC(=O)/C(C)=C\C=C\[C@H](C)[C@H](O)[C@@H](C)[C@H](O)[C@H](C)[C@H](OC(C)=O)[C@H](C)[C@@H](OC)/C=C/O[C@@]4(C)Oc5c(C)c(O)c(c1c5C4=O)C3=O)N2`, the MIC in experiment [1] and in experiment [2] was 0.02 mg/L (≈ 0.0201 µM) in each case. Also, the Activity with Mycobacterium avium is 80%; in the experiment on Mycobacterium kansasii, 100%.

Regarding `CO[C@H]1/C=C/O[C@@]2(C)Oc3c(C)c(O)c4c(c3C2=O)C2=N[C@@]3(C[C@@H](c5ccc(F)cc5)N[C@@H](c5ccc(F)cc5)C3)NC2=C(NC(=O)/C(C)=C\C=C\[C@H](C)[C@H](O)[C@@H](C)[C@H](O)[C@H](C)[C@H](OC(C)=O)[C@@H]1C)C4=O`, the MIC in experiment [1] and in experiment [2] was 0.02 mg/L (≈ 0.0204 µM) throughout. The Activity in the experiment on Mycobacterium avium and in the experiment with Mycobacterium kansasii was 100% in each case.

With `CO[C@H]1/C=C/O[C@@]2(C)Oc3c(C)c(O)c4c(c3C2=O)C2=N[C@@]3(C[C@@H](c5ccccc5)N[C@@H](c5ccccc5)C3)NC2=C(NC(=O)/C(C)=C\C=C\[C@H](C)[C@H](O)[C@@H](C)[C@H](O)[C@H](C)[C@H](OC(C)=O)[C@@H]1C)C4=O`, the minimum inhibitory concentration (MIC) in experiment [1] and in experiment [2] was 0.02 mg/L (≈ 0.0212 µM) each time. For the same compound, the Activity in the experiment with Mycobacterium avium and in the experiment on Mycobacterium kansasii was 100% in each case.

For the compound `CO[C@H]1/C=C/O[C@@]2(C)Oc3c(C)c(O)c4c(c3C2=O)C2=NC3(CCN(CC(C)C)CC3)NC2=C(NC(=O)/C(C)=C\C=C\[C@H](C)[C@H](O)[C@@H](C)[C@@H](O)[C@@H](C)[C@H](OC(C)=O)[C@@H]1C)C4=O` [RIFABUTIN], the MIC in experiment [1] and in experiment [2] was 0.02 mg/L (≈ 0.0236 µM) in each case. The Activity in the experiment on Mycobacterium avium was determined as 20%; with Mycobacterium kansasii, 100%.

As for `CO[C@H]1/C=C/O[C@@]2(C)Oc3c(C)c(O)c4c(c3C2=O)C2=N[C@]3(C[C@@H](c5ccccc5)N[C@@H](c5ccccc5)C3)NC2=C(NC(=O)/C(C)=C\C=C\[C@H](C)[C@H](O)[C@@H](C)[C@H](O)[C@H](C)[C@H](OC(C)=O)[C@@H]1C)C4=O`, the MIC in experiment [1] and in experiment [2] was 0.02 mg/L (≈ 0.0212 µM) in each case. For the same compound, the Activity in the experiment on Mycobacterium avium and with Mycobacterium kansasii was 100% throughout.

Turning to `COc1ccc([C@@H]2C[C@]3(C[C@H](c4ccc(OC)cc4)N2)N=C2C(=C4NC(=O)/C(C)=C\C=C\[C@H](C)[C@H](O)[C@@H](C)[C@H](O)[C@H](C)[C@H](OC(C)=O)[C@H](C)[C@@H](OC)/C=C/O[C@@]5(C)Oc6c(C)c(O)c(c2c6C5=O)C4=O)N3)cc1`, the MIC in experiment [1] and in experiment [2] was 0.02 mg/L (≈ 0.0199 µM) each time. Further, the Activity is recorded as 60% in the experiment with Mycobacterium avium and 100% in the experiment with Mycobacterium kansasii.

As to `CCCCN1[C@@H](c2ccccc2)C[C@@]2(C[C@H]1c1ccccc1)N=C1C(=C3NC(=O)/C(C)=C\C=C\[C@H](C)[C@H](O)[C@@H](C)[C@H](O)[C@H](C)[C@H](OC(C)=O)[C@H](C)[C@@H](OC)/C=C/O[C@@]4(C)Oc5c(C)c(O)c(c1c5C4=O)C3=O)N2`, the MIC in experiment [1] and in experiment [2] was 0.02 mg/L (≈ 0.02 µM) in each case. Further, the Activity in the experiment with Mycobacterium avium was determined as 40%; with Mycobacterium kansasii it was 100%.

In the case of `CO[C@H]1/C=C/O[C@@]2(C)Oc3c(C)c(O)c4c(O)c(c(/C=N/N5CCN(C)CC5)c(O)c4c3C2=O)NC(=O)/C(C)=C\C=C\[C@H](C)[C@H](O)[C@@H](C)[C@@H](O)[C@@H](C)[C@H](OC(C)=O)[C@@H]1C` [RIFAMPIN], the MIC in experiment [1] and in experiment [2] was 0.02 mg/L (≈ 0.0243 µM) each time. Besides, the Activity in the experiment with Mycobacterium avium was found to be 0%; with Mycobacterium kansasii, 100%.
